Results from US20030212006A1, “Method for reducing free radical formation in healthy individuals undergoing hypoxic exercise and medical conditions with increased oxygen free radicals” (priority 2002, published 2003).

Tests used:
Format in all cases: in vivo, human
[1] = Heart rate during a cycling bout under hypoxic conditions; details: n=7 subjects
Method: Seven healthy, moderately to highly conditioned subjects volunteered to participate in this randomized, blinded, crossover trial. All subjects were between the ages of 23 and 41 years of age, and each subject cycled in two distinct trial arms, a ribose phase and a control phase. One week separated each trial arm. Subjects ingested either 7 grams of ribose in 250 mL of water or just plain water, five minutes prior to the start of exercise and again within five minutes following exercise. The scheduled exercise was 25 minutes of cycling at a workload relating to the lactic acid threshold. Subjects inhaled a hypoxic gas mixture of 16% oxygen and 84% nitrogen through a one-way breathing valve during the exercise bout. Following the cycling exercise, subjects sat quietly for 60 minutes and breathed room air during the recovery phase. All tests were conducted at room temperature. The cardiovascular parameters of heart rate and oxygen pulse saturation (SpO2) were collected at 9 minutes, 17 minutes, and 25 minutes of exercise. Oxygen pulse saturation was collected with a Nonin pulse oximeter (Nonin Medical Inc., Plymouth, Minn.). […] The 4.8% vs. 7.5% represents heart rates of 175 beats per minute (bpm) and 181 bpm for ribose and placebo (n=7 subjects).

[2] = Urinary MDA after a single cycling bout under hypoxic conditions (16% oxygen), crossover trial; details: 7 grams ribose in 250 mL water before and after exercise; compared to the placebo; n=7 subjects; p=0.01
Method: (§1) Seven healthy, moderately to highly conditioned subjects volunteered to participate in this randomized, blinded, crossover trial. All subjects were between the ages of 23 and 41 years of age, and each subject cycled in two distinct trial arms, a ribose phase and a control phase. One week separated each trial arm. Subjects ingested either 7 grams of ribose in 250 mL of water or just plain water, five minutes prior to the start of exercise and again within five minutes following exercise. The scheduled exercise was 25 minutes of cycling at a workload relating to the lactic acid threshold. Subjects inhaled a hypoxic gas mixture of 16% oxygen and 84% nitrogen through a one-way breathing valve during the exercise bout. Following the cycling exercise, subjects sat quietly for 60 minutes and breathed room air during the recovery phase. All tests were conducted at room temperature. […] A whole blood sample was analyzed for hemoglobin. […] Each frozen plasma sample was analyzed for total protein and uric acid levels. Plasma samples were also analyzed for reduced glutathione levels (GSH kit, Oxis Research, Portland, Oreg.) and volumes were corrected for potential fluid loss by measuring total protein values. The frozen urine samples were analyzed for MDA (MDA kit, Oxis Research, Portland, Oreg.). […]

[3] = Subjective ranking of exercise and recovery by blinded subjects
Method: Seven healthy, moderately to highly conditioned subjects volunteered to participate in this randomized, blinded, crossover trial. All subjects were between the ages of 23 and 41 years of age, and each subject cycled in two distinct trial arms, a ribose phase and a control phase. One week separated each trial arm. Subjects ingested either 7 grams of ribose in 250 mL of water or just plain water, five minutes prior to the start of exercise and again within five minutes following exercise. The scheduled exercise was 25 minutes of cycling at a workload relating to the lactic acid threshold. Subjects inhaled a hypoxic gas mixture of 16% oxygen and 84% nitrogen through a one-way breathing valve during the exercise bout. Following the cycling exercise, subjects sat quietly for 60 minutes and breathed room air during the recovery phase. All tests were conducted at room temperature. […] During the control trial, subjects expressed strong desires to take a nap during the recovery period. Additionally, four of the subjects reported that after leaving the laboratory, they went home and took long (>2 hours) naps.

[4] = Reduced plasma glutathione (GSH) after a single cycling bout under hypoxic conditions; details: 7 grams ribose before and after exercise; n=7 subjects; p=0.000
Method: as §1

O=C[C@H](O)[C@H](O)[C@H](O)CO [ribose, D-ribose]
Heart rate ([1]; during hypoxic exercise, placebo 181 bpm): 175 bpm | Percent change in heart rate during exercise (in words) ([1]; ribose supplementation vs placebo, p=0.03): significantly less | Percent change in heart rate during exercise ([1]; ribose supplementation, placebo 7.5%): 4.8% | Percent change in urine MDA [2]: significantly lower | Blinded subjects who ranked the exercise easier and felt they had a faster recovery period ([3]; after cycling when they ingested ribose): 6 out of 7 | Comments and symptoms observed during recovery ([3]; recovery after hypoxic cycling when ribose was ingested): decreased lethargy | Percent change in plasma GSH [4]: significantly lower
